Results as given in patent US20090022720A1, “Conjugate of an antibody against CD4 and antifusogenic peptides” (priority 2007, published 2009).

Legend:
NL-BAL (R5) = experiment: Single-cycle antiviral activity assay (luciferase, JC53-BL cells), NL-BAL; format: cell-based, HIV; settings: Table 3, by weight, pseudotyped virus, 3 day incubation
Protocol: For the production of pseudotyped NL-Bal viruses, plasmid pNL4-3Δenv (HIV pNL4-3 genomic construct with a deletion within the env gene) and pcDNA3.1/NL-BAL env (pcDNA3.1 plasmid containing NL-Bal env gene (obtained from NIBSC Centralized Facility for AIDS Reagents)) were co-transfected into the HEK 293FT cell line (Invitrogen Corp.), cultured in Dulbecco's modified minimum medium (DMEM) containing 10% fetal calf serum (FCS), 100 U/mL Penicillin, 100 μg/mL Streptomycin, 2 mM L-glutamine and 0.5 mg/mL geniticin (all media from Invitrogen/Gibco). The supernatants containing pseudotyped viruses were harvested two days following transfection, and cellular debris was removed by filtration through a […] pore size PES (polyethersulfone) filter (Nalgene) and stored at −80° C. in aliquots. For normalization in assay performance, virus stock aliquots were used to infect JC53-BL (US NIH Aids Reagent Program) cells yielding approximately 1.5×10^5 RLU (relative light units) per well. […] The assay plates were read on a Luminometer (Luminoskan, Thermo Electron Corporation) after 10 minutes of incubation at room temperature. Percent inhibition of luciferase activity was calculated for each dose point after subtracting the background, and IC50 and IC90-values were determined by using XLfit curve fitting software for Excel (version 3.0.5 Build12; Microsoft).

NL-BAL = experiment: Antiviral activity assay in peripheral blood mononuclear cells (PBMC), p24 ELISA, NL-BAL; format: cell-based, HIV-1; settings: Table 5, by weight; human PBMC, 6 days
Protocol: Human PBMC are isolated from buffy-coats (obtained from the Stanford Blood Center) by a Ficoll-Paque (Amersham, Piscataway, N.J., USA) density gradient centrifugation according to manufacturer's protocol. Briefly, blood is transferred from the buffy coats in 50 ml conical tubes and diluted with sterile Dulbecco's phosphate buffered saline (Invitrogen/Gibco) to a final volume of 50 ml. Twenty-five ml of the diluted blood are transferred to two 50 ml conical tubes, carefully underlayerd with 12.5 ml of Ficoll-Paque Plus (Amersham Biosciences) and centrifuged at room temperature for 20 min. at 450×g without braking. The white cell layer is carefully transferred to a new 50 ml conical tube and washed twice with PBS. To remove remaining red blood cells, cells are incubated for 5 min. at room temperature with ACK lysis buffer (Biosource) and washed one more time with PBS. PBMC are counted and incubated at a concentration of 2-4×10^6 cells/ml in RPMI1640 containing 10% FCS (Invitrogen/Gibco), 1% penicillin/streptomycin, 2 mM L-glutamine, 1 mM sodium-pyruvate, and 2 μg/ml Phyto-hemagglutinin (Invitrogen) for 24 h at 37° C. […] Virus production is measured at the end of infection by using p24 ELISA (HIV-1 p24 ELISA #NEK050B, Perkin Elmer/NEN) using the sigmoid dose-response model with one binding site in Microsoft Excel Fit (version 3.0.5 Build 12; equation 205; Microsoft).

NMTWMEWDREINQYTSLIHSLIEESQNQQEKNEQELL [afp-1]
Antiviral activity NL-BAL (R5) IC50 (NL-BAL (R5)): 19.6/— ng/mL
Antiviral activity NL-BAL IC90 (NL-BAL): —/57.6 ng/mL
